Test results from patent US12492173B2, “Herbicidal substituted N-tetrazolyl aryl carboxamides” (Bayer Aktiengesellschaft, priority 2019, dated 2025).

Columns and labels:
Format in all cases: in vivo
[1] = test system: Amaranthus retroflexus; experiment: Pre-emergence herbicidal action, AMARE; details: dosage 320 g/ha; for herbicidal activity AMARE: scored visually after 3 weeks vs untreated controls (100% = plants have died)
Outline: (§1)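 Percent damage, assessed visually after 3 weeks and referenced to untreated controls, reflects a pre-emergence treatment. Spray liquid equated to 600 to 800 l/ha with 0.2% wetting agent, applied to the covering soil over seeds in sandy loam.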

[2] = test system: Pharbitis purpurea; experiment: Pre-emergence herbicidal action, PHBPU; details: for herbicidal activity PHBPU: dosage 320 g/ha, scored visually after 3 weeks vs untreated controls (100% = plants have died)
Outline: as §1

[3] = test system: Polygonum convolvulus; experiment: Pre-emergence herbicidal action, POLCO; details: for herbicidal activity POLCO: dosage 320 g/ha, scored visually after 3 weeks vs untreated controls (100% = plants have died)
Outline: as §1

[4] = test system: Cyperus esculentus; experiment: Post-emergence herbicidal action, CYPES; set-up: key: % herbicidal action vs untreated; 100 = plants died, 0 = like control
Outline: (§2)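 Greenhouse weeds grown in sandy loam were sprayed at the one-leaf stage, 2–3 weeks after sowing, with WP or EC formulations at 600–800 l/ha water plus 0.2% wetting agent. Damage scored visually about 3 weeks later, in percent against untreated controls (100% = plants dead).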

[5] = test system: Polygonum convolvulus; experiment: Post-emergence herbicidal action, POLCO
Outline: as §2

[6] = comparative experiment, 20 g of a.i./ha

Row | Structure (SMILES) | herbicidal activity AMARE [1] [%] | herbicidal activity PHBPU [2] [%] | herbicidal activity POLCO [3] [%] | herbicidal action POLCO ([5]; Dosage 80 g/ha) | further results
1 | CCSCc1c(C(F)(F)F)ccc(C(=O)Nc2nnnn2C)c1C [Example 1-86] | 100 | 80 | 100 |  | herbicidal action CYPES ([4]; post-emergence, dosage 80 g/ha): 80%; herbicidal action POLCO ([5]; post-emergence, dosage 80 g/ha): 80%
2 | CSCc1c(C(F)F)ccc(C(=O)Nc2nnnn2C)c1C [Example 1-107, 4-(difluoromethyl)-2-methyl-3-[(methylsulfanyl)methyl]-N-(1-methyl-1H-tetrazol-5-yl)benzamide] | 100 | 90 | 80 | 90 | 
3 | Cc1c(C(=O)Nc2nnnn2C)ccc(C(F)F)c1CS(C)(=O)=O [Example 1-109] | 100 | 80 | 90 |  | herbicidal action CYPES ([4]; Dosage 80 g/ha): 80
4 | COc1c(C(=O)Nc2nnnn2C)ccc(C(F)(F)F)c1CSC [Example 1-134] | 100 | 80 | 80 | 90 | Herbicidal action against PHBPU [2, 6]: 20; Herbicidal action against POLCO [3, 6]: 30; Herbicidal action against POLCO ([5]; post-emergence, dosage 80 g/ha): 80
5 | CSCc1c(C(F)(F)F)ccc(C(=O)Nc2nnnn2C)c1F [Example 1-242] | 100 |  | 80 |  | herbicidal action CYPES ([4]; Dosage 80 g/ha): 80
6 | Cn1nnnc1NC(=O)c1ccc(C(F)(F)F)c(C[S+](C)[O-])c1F (centres unmarked) [Example 1-243] | 100 | 80 |  |  | 
7 | Cn1nnnc1NC(=O)c1ccc(C(F)(F)F)c(CS(C)(=O)=O)c1F [Example 1-244] | 100 | 90 |  |  | 
8 | Cc1ccc(C(=O)Nc2nnnn2C)c(Cl)c1CS(C)(=O)=O [Example 1-289] | 100 |  | 80 |  | 
9 | CCS(=O)(=O)Cc1c(C(F)(F)F)ccc(C(=O)Nc2nnnn2C)c1Cl [Example 1-301] | 100 | 100 | 100 | 100 | 
10 | C=CCSCc1c(C(F)(F)F)ccc(C(=O)Nc2nnnn2C)c1Cl [Example 1-308] | 100 | 100 | 100 |  | herbicidal action CYPES ([4]; post-emergence, dosage 80 g/ha): 90%; herbicidal action POLCO ([5]; post-emergence, dosage 80 g/ha): 90%
11 | Cn1nnnc1NC(=O)c1ccc(C(F)(F)F)c(CS(C)(=O)=O)c1Br [Example 1-382, 2-bromo-3-[(methylsulfonyl)methyl]-N-(1-methyl-1H-tetrazol-5-yl)-4-(trifluoromethyl)benzamide] | 100 |  | 90 | 90 | 
12 | CCn1nnnc1NC(=O)c1ccc(S(C)(=O)=O)c(CS(C)(=O)=O)c1C [Example 2-39] |  |  |  |  | herbicidal action AMARE [1]: 100%; herbicidal action CYPES ([4]; Dosage 80 g/ha): 80
13 | CCn1nnnc1NC(=O)c1ccc(C(F)F)c(CSC)c1C [Example 2-107] | 100 |  | 80 | 90 | 
14 | CCn1nnnc1NC(=O)c1ccc(C(F)(F)F)c(C[S+](C)[O-])c1OC (centres unmarked) [Example 2-135] | 100 |  | 90 | 90 | 
15 | CCn1nnnc1NC(=O)c1ccc(C(F)(F)F)c(CS(C)(=O)=O)c1OC [Example 2-136] | 100 |  | 100 |  | 
16 | CCn1nnnc1NC(=O)c1ccc(C(F)(F)F)c(CS(C)(=O)=O)c1SC [Example 2-163] | 100 | 90 | 100 | 90 | 
17 | CCn1nnnc1NC(=O)c1ccc(C)c(CSC)c1Cl [Example 2-287] | 100 |  |  | 80 | 
18 | CCCn1nnnc1NC(=O)c1ccc(C(F)(F)F)c(CS(=O)(=O)CC)c1C [Example 3-88] | 100 | 90 |  | 90 | 
19 | CCCn1nnnc1NC(=O)c1ccc(C(F)F)c(CSC)c1C [Example 3-107] | 100 |  | 90 | 90 | 
20 | CCCn1nnnc1NC(=O)c1ccc(C(F)(F)F)c(CSC)c1OC [Example 3-134] | 100 |  | 80 | 90 | 
21 | CCCn1nnnc1NC(=O)c1ccc(C(F)(F)F)c(CS(C)(=O)=O)c1OC [Example 3-136] | 100 |  | 80 | 80 | 
22 | CCCn1nnnc1NC(=O)c1ccc(C(F)(F)F)c(C[S+](C)[O-])c1Cl (centres unmarked) [Example 3-297] | 100 | 80 |  |  | herbicidal action CYPES ([4]; post-emergence, dosage 80 g/ha): 80%; herbicidal action POLCO ([5]; post-emergence, dosage 80 g/ha): 80%
23 | CCCn1nnnc1NC(=O)c1ccc(C(F)F)c(CSC)c1Cl [Example 3-320] | 100 |  | 90 | 90 | 
24 | CCCn1nnnc1NC(=O)c1ccc(C(F)F)c(C[S+]([O-])CC)c1Cl (centres unmarked) [Example 3-324] | 100 | 90 | 100 | 100 | herbicidal action CYPES ([4]; Dosage 80 g/ha): 90
25 | CCCn1nnnc1NC(=O)c1ccc(C(F)(F)F)c(CSC)c1Br [Example 3-380] | 100 | 90 | 80 | 90 | 
26 | CCCn1nnnc1NC(=O)c1ccc(C(F)(F)F)c(C[S+](C)[O-])c1Br (centres unmarked) [Example 3-381] | 100 |  | 80 |  | herbicidal action CYPES ([4]; post-emergence, dosage 80 g/ha): 90%; herbicidal action POLCO ([5]; post-emergence, dosage 80 g/ha): 80%
